Data: ChEMBL document CHEMBL5325501, “Discovery of BWA-522, a First-in-Class and Orally Bioavailable PROTAC Degrader of the Androgen Receptor Targeting N-Terminal Domain for the Treatment of Prostate Cancer” (J Med Chem, 2023)
The source made the active and inactive calls. No cut-off for these calls is given here.

Legend:
[1] = target: T1, von Hippel-Lindau disease tumor suppressor/Androgen receptor (Homo sapiens, UniProt P10275+P40337); experiment: PROTAC activity at VHL/full-length AR in human LNCaP cells assessed as induction of AR degradation at 1 uM by Western blot analysis relative to control; type: cell-based
Target sequence in this assay (P10275 whole entry, looked up): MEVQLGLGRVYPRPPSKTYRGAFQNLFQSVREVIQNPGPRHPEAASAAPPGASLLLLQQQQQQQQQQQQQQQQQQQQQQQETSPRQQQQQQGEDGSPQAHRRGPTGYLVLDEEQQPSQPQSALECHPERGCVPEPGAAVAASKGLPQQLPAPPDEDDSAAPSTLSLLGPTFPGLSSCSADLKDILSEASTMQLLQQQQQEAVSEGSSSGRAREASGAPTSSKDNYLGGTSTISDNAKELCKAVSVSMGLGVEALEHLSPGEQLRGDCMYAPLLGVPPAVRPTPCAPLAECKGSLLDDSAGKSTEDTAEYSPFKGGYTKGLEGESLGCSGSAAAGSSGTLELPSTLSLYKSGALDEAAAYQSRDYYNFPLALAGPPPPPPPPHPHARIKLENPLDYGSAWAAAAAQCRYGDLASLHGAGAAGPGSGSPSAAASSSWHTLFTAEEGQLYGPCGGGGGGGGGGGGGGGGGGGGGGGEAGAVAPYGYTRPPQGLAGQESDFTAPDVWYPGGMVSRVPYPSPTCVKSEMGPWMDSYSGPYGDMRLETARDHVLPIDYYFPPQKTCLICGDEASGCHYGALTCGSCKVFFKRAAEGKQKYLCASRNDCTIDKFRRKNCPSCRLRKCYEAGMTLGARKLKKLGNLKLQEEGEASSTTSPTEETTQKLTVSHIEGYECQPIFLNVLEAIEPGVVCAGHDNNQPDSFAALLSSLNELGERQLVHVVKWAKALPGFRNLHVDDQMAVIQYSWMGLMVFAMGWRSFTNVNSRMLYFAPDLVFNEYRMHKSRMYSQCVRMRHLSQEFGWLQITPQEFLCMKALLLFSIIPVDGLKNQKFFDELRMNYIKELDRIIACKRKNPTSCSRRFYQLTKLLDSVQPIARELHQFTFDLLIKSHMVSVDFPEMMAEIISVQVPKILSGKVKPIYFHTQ
Target sequence in this assay (P40337 whole entry, looked up): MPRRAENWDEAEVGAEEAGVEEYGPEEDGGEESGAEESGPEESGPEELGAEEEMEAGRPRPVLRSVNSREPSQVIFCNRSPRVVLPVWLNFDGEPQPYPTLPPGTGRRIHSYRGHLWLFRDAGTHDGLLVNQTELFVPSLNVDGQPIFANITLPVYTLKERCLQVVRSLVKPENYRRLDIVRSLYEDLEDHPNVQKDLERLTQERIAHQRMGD

[2] = target: T1, von Hippel-Lindau disease tumor suppressor/Androgen receptor; experiment: PROTAC activity at VHL/full-length AR in human LNCaP cells assessed as induction of AR degradation at 5 uM by Western blot analysis relative to control; type: cell-based
Target sequence in this assay (P10275 whole entry, looked up): as the sequence (P10275 whole entry, looked up) above
Target sequence in this assay (P40337 whole entry, looked up): as the sequence (P40337 whole entry, looked up) above

[3] = target: T1, von Hippel-Lindau disease tumor suppressor/Androgen receptor; experiment: PROTAC activity at VHL/full-length AR in human VCaP cells assessed as induction of AR degradation at 1 uM by Western blot analysis relative to control; type: cell-based
Target sequence in this assay (P10275 whole entry, looked up): as the sequence (P10275 whole entry, looked up) above
Target sequence in this assay (P40337 whole entry, looked up): as the sequence (P40337 whole entry, looked up) above

[4] = target: T1, von Hippel-Lindau disease tumor suppressor/Androgen receptor; experiment: PROTAC activity at VHL/full-length AR in human VCaP cells assessed as induction of AR degradation at 5 uM by Western blot analysis relative to control; type: cell-based
Target sequence in this assay (P10275 whole entry, looked up): as the sequence (P10275 whole entry, looked up) above
Target sequence in this assay (P40337 whole entry, looked up): as the sequence (P40337 whole entry, looked up) above

[5] = system: von Hippel-Lindau disease tumor suppressor/Androgen receptor (Homo sapiens), P10275+P40337 [UNDEFINED MUTATION]; experiment: PROTAC activity at VHL/AR-V7 in human VCaP cells assessed as induction of AR degradation at 1 uM by Western blot analysis relative to control; type: cell-based
von Hippel-Lindau disease tumor suppressor/Androgen receptor (Homo sapiens), P10275+P40337 [UNDEFINED MUTATION], sequence (P10275 whole entry, looked up, change not shown): as the sequence (P10275 whole entry, looked up) above
von Hippel-Lindau disease tumor suppressor/Androgen receptor (Homo sapiens), P10275+P40337 [UNDEFINED MUTATION], sequence (P40337 whole entry, looked up, change not shown): as the sequence (P40337 whole entry, looked up) above

[6] = system: von Hippel-Lindau disease tumor suppressor/Androgen receptor (Homo sapiens), P10275+P40337 [UNDEFINED MUTATION]; experiment: PROTAC activity at VHL/AR-V7 in human VCaP cells assessed as induction of AR degradation at 5 uM by Western blot analysis relative to control; type: cell-based
[7] = Tmax in ICR mouse at 10 mg/kg, po measured by LC-MS/MS analysis; type: ADME, organism-based; conditions: in vivo
[8] = Cmax in ICR mouse at 10 mg/kg, po measured by LC-MS/MS analysis; type: ADME, organism-based; design: dose 10 mg/kg, route po; conditions: in vivo
[9] = Half-life in ICR mouse at 2 mg/kg, iv measured by LC-MS/MS analysis; type: ADME, organism-based; conditions: in vivo
[10] = Tmax in ICR mouse at 2 mg/kg, iv measured by LC-MS/MS analysis; type: ADME, organism-based; conditions: in vivo
[11] = Cmax in ICR mouse at 2 mg/kg, iv measured by LC-MS/MS analysis; type: ADME, organism-based; design: dose 2 mg/kg, route iv; conditions: in vivo
[12] = AUC(0 to t) in ICR mouse at 2 mg/kg, iv measured by LC-MS/MS analysis; type: ADME, organism-based; design: dose 2 mg/kg, route iv; conditions: in vivo
[13] = Clearance in ICR mouse at 2 mg/kg, iv measured by LC-MS/MS analysis; type: ADME, organism-based; conditions: in vivo
[14] = Half-life in ICR mouse at 10 mg/kg, po measured by LC-MS/MS analysis; type: ADME, organism-based; conditions: in vivo
[15] = AUC(0 to t) in ICR mouse at 10 mg/kg, po measured by LC-MS/MS analysis; type: ADME, organism-based; design: dose 10 mg/kg, route po; conditions: in vivo
[16] = Oral bioavailability in ICR mouse at 10 mg/kg measured by LC-MS/MS analysis; type: ADME, organism-based; conditions: in vivo
[17] = target: T1, von Hippel-Lindau disease tumor suppressor/Androgen receptor; experiment: PROTAC activity at VHL/AR-V7 in human 22Rv1 cells assessed as induction of AR degradation by Immunoblot analysis; type: cell-based
Target sequence in this assay (P10275 whole entry, looked up, change not shown): as the sequence (P10275 whole entry, looked up) above
Target sequence in this assay (P40337 whole entry, looked up, change not shown): as the sequence (P40337 whole entry, looked up) above

LNCaP [18] = experiment: Antiproliferative activity against human LNCaP cells assessed as reduction in cell viability incubated for 6 days by CCK-8 assay; type: functional, cell-based; conditions: 144 h
VCaP = experiment: Antiproliferative activity against human VCaP cells assessed as reduction in cell viability incubated for 6 days by CCK-8 assay; type: functional, cell-based; conditions: 144 h
CWR22R [19] = experiment: Antiproliferative activity against enzalutamide-resistant human 22Rv1 cells assessed as reduction in cell viability incubated for 6 days by CCK-8 assay; type: functional, cell-based; conditions: 22Rv1, 144 h
LNCaP [20] = experiment: Inhibition of colony formation in human LNCaP cells at 1 to 10 uM incubated for 2 weeks by crystal violet staining based analysis; type: functional, cell-based; conditions: dose 1-10 µM
CWR22R [21] = experiment: Inhibition of colony formation in human 22Rv1 cells at 1 to 10 uM incubated for 2 weeks by crystal violet staining based analysis; type: functional, cell-based; conditions: dose 1-10 µM
LNCaP [22] = experiment: Antitumor activity against human LNCaP cells xenografted in NOD SCID mouse assessed as tumor growth inhibition at 180 mg/kg, po administered daily for 4 weeks relative to control; type: functional; conditions: 672 h, read-out: TGI
[23] = target: T2, Protein cereblon/Androgen receptor (Homo sapiens) (UniProt P10275+Q96SW2); experiment: PROTAC activity at CRBN/full-length AR in human 22Rv1 cells assessed as induction of AR degradation at 0.03 to 1 uM incubated for 24 hrs by Western blot analysis; type: cell-based; conditions: dose 0.03-1 µM
T2 sequence (P10275 whole entry, looked up): as the sequence (P10275 whole entry, looked up) above
T2 sequence (Q96SW2 whole entry, looked up): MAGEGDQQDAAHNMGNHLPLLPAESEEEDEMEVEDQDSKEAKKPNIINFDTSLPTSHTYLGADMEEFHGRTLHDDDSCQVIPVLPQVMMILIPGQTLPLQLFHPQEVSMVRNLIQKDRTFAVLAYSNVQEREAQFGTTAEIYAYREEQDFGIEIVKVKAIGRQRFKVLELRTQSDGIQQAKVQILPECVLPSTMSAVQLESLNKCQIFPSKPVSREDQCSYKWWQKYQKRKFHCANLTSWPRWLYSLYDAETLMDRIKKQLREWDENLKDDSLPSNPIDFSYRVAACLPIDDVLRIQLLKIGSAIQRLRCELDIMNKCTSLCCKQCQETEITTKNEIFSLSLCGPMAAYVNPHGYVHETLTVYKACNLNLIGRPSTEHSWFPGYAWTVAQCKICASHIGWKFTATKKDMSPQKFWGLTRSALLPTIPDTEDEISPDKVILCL

[24] = target: T2, Protein cereblon/Androgen receptor (Homo sapiens); experiment: PROTAC activity at CRBN/full-length AR in human […] cells assessed as induction of AR degradation at 0.03 to 1 uM incubated for 24 hrs by Western blot analysis; type: cell-based; conditions: dose 0.03-1 µM
[25] = system: Protein cereblon/Androgen receptor (Homo sapiens), P10275+Q96SW2 [UNDEFINED MUTATION]; experiment: PROTAC activity at CRBN/AR-V7 in human 22Rv1 cells assessed as induction of AR degradation at 0.03 to 1 uM incubated for 24 hrs by Western blot analysis; type: cell-based; conditions: dose 0.03-1 µM
Protein cereblon/Androgen receptor (Homo sapiens), P10275+Q96SW2 [UNDEFINED MUTATION], sequence (P10275 whole entry, looked up, stated change not applied): as the sequence (P10275 whole entry, looked up) above
Protein cereblon/Androgen receptor (Homo sapiens), P10275+Q96SW2 [UNDEFINED MUTATION], sequence (Q96SW2 whole entry, looked up, stated change not applied): as the sequence (Q96SW2 whole entry, looked up) above

[26] = system: Protein cereblon/Androgen receptor (Homo sapiens), P10275+Q96SW2 [UNDEFINED MUTATION]; experiment: PROTAC activity at CRBN/AR-V7 in human […] cells assessed as induction of AR degradation at 0.03 to 1 uM incubated for 24 hrs by Western blot analysis; type: cell-based; conditions: dose 0.03-1 µM
CWR22R [27] = experiment: Cytotoxicity against human 22Rv1 cells assessed as cell death at high concentration incubated for 24 hrs; type: toxicity, cell-based
PC-3 [28] = experiment: Cytotoxicity against human PC-3 cells assessed as cell death at high concentration incubated for 24 hrs; type: toxicity, cell-based; conditions: pc-3, 24 h
[29] = Cytotoxicity against human PC-3 cells assessed as inhibition of cell growth incubated for 6 days; type: toxicity, cell-based
RWPE-1 = experiment: Cytotoxicity against human RWPE-1 cells assessed as reduction in cell viability incubated for 6 days by CCK8 assay; type: toxicity, cell-based; conditions: rwpe-1, 144 h, time 6 day
LNCaP [30] = experiment: Antitumor activity against human LNCaP cells xenografted in NOD SCID mouse assessed as tumor growth inhibition at 10 mg/kg, po administered daily for 4 weeks relative to control; conditions: 672 h, read-out: TGI
CWR22R [31] = experiment: Cytotoxicity against human 22Rv1 cells assessed as cell death at 5 uM; type: toxicity, cell-based
PC-3 [32] = experiment: Cytotoxicity against human PC-3 cells assessed as cell death at 5 uM; type: toxicity, cell-based; conditions: pc-3, 5 µM

Cc1ncsc1-c1ccc(CNC(=O)[C@@H]2C[C@@H](O)CN2C(=O)[C@@H](NC(=O)Cn2cc(CCCOc3ccc(C(C)(C)c4ccc(OC[C@H](O)CCl)cc4)cc3)nn2)C(C)(C)C)cc1
Activity [1]: 17.6%
Activity [2]: 27.9%
Activity [3]: 18.4%
Activity [4]: 31%
Activity [5]: 45.9%
Activity [6]: 63.3%

CC(C)(c1ccc(OCC2CCN(CC3CN(C4CCN(c5cccc6c5C(=O)N(C5CCC(=O)NC5=O)C6=O)CC4)C3)CC2)cc1)c1ccc(OC[C@H](O)CCl)cc1 (stereo not given in full)
Tmax [7]: 2 h
Cmax [8]: 47 ng/mL
half-life [9]: 13.6 h
Tmax [10]: 6 min
Cmax [11]: 662 ng/mL
AUC(0-t) [12]: 645 ng·h/mL
clearance [13]: 38.6 mL/min/kg
half-life [14]: 20.5 h
AUC(0-t) [15]: 332 ng·h/mL
bioavailability [16]: 12.3%

Cc1ncsc1-c1ccc([C@H](C)NC(=O)[C@@H]2C[C@@H](O)CN2C(=O)[C@@H](NC(=O)CCCCNC(=O)COc2c(-c3csc(N4CCOCC4)n3)ccc(F)c2F)C(C)(C)C)cc1
EC50 [17]: 370 nM

Cc1ncsc1-c1ccc(CNC(=O)[C@@H]2C[C@@H](O)CN2C(=O)[C@@H](NC(=O)Cn2cc(CCCCOc3ccc(C(C)(C)c4ccc(OC[C@H](O)CCl)cc4)cc3)nn2)C(C)(C)C)cc1
Activity [1]: 22%
Activity [2]: 36.6%
Activity [3]: 43.2%
Activity [4]: 53.5%
Activity [5]: 56.4%
Activity [6]: 59.5%

CC(C)(c1ccc(OC[C@H](O)CO)cc1)c1ccc(OC[C@H](O)CCl)cc1
IC50 (LNCaP [18]): > 30000 nM
IC50 (VCaP): > 30000 nM
IC50 (CWR22R [19]): > 30000 nM
inhibition (LNCaP [20]): inactive
inhibition (CWR22R [21]): inactive
inhibition in vivo at 180 mg/kg (LNCaP [22]): 43%

CC(C)(c1ccc(OCC2CCN(CC3CCN(CC4CCN(c5ccc6c(c5)C(=O)N(C5CCC(=O)NC5=O)C6=O)CC4)CC3)CC2)cc1)c1ccc(OC[C@H](O)CCl)cc1 (stereo not given in full)
Activity [23]: inactive
Activity [24]: inactive
Activity [25]: inactive
Activity [26]: inactive
Activity (CWR22R [27]): Toxic
Activity (PC-3 [28]): Toxic
IC50 at 6 days [29]: 1370 nM

CNC(=O)c1ccc(N2C(=S)N(c3ccc(C#N)c(C(F)(F)F)c3)C(=O)C2(C)C)cc1F [ENZALUTAMIDE]
Activity (RWPE-1): Non-Toxic
inhibition in vivo at 10 mg/kg (LNCaP [30]): 72%

CC(C)(c1ccc(OCC2CCN(C(=O)CCCNc3ccc4c(c3)C(=O)N(C3CCC(=O)NC3=O)C4=O)CC2)cc1)c1ccc(OC[C@H](O)CCl)cc1 (stereo not given in full)
Tmax [7]: 0.2 h
Cmax [8]: 130 ng/mL
half-life [9]: 0.5 h
Tmax [10]: 6 min
Cmax [11]: 518 ng/mL
AUC(0-t) [12]: 303 ng·h/mL
clearance [13]: 111 mL/min/kg
half-life [14]: 1.8 h
AUC(0-t) [15]: 113 ng·h/mL
bioavailability [16]: 7.8%

CC(C)(c1ccc(OCC2CCN(CC3CCN(C4CCN(c5cccc6c5C(=O)N(C5CCC(=O)NC5=O)C6=O)CC4)CC3)CC2)cc1)c1ccc(OC[C@H](O)CCl)cc1 (stereo not given in full)
Activity (CWR22R [31]): Toxic
Activity (PC-3 [32]): Toxic

CC(C)(c1ccc(OCC2CCN(CC3CCN(C4CCN(c5ccc6c(c5)C(=O)N(C5CCC(=O)NC5=O)C6=O)CC4)CC3)CC2)cc1)c1ccc(OC[C@H](O)CCl)cc1 (stereo not given in full)
Activity [23]: inactive
Activity [24]: inactive
Activity [25]: inactive
Activity [26]: inactive
Activity (CWR22R [27]): Toxic
Activity (PC-3 [28]): Toxic
IC50 at 6 days [29]: 1030 nM

CC(C)(c1ccc(OCC2CCN(CC3CCN(CC4CCN(c5cccc6c5C(=O)N(C5CCC(=O)NC5=O)C6=O)CC4)CC3)CC2)cc1)c1ccc(OC[C@H](O)CCl)cc1 (stereo not given in full)
Activity (CWR22R [31]): Toxic
Activity (PC-3 [32]): Toxic

Cc1ncsc1-c1ccc(CNC(=O)[C@@H]2C[C@@H](O)CN2C(=O)[C@@H](NC(=O)Cn2cc(CCCCCOc3ccc(C(C)(C)c4ccc(OC[C@H](O)CCl)cc4)cc3)nn2)C(C)(C)C)cc1
Activity [1]: 27.5%
Activity [2]: 31.9%
Activity [3]: 48.9%
Activity [4]: 39.6%
Activity [5]: 38.1%
Activity [6]: 48.2%
